We go through 1 compound from patent US5994087A, “Mammalian melanocortin receptors and uses” (Oregon Health Sciences University, priority 1995, dated 1999).

For test [1], the target named is rat MC3-R (Rattus norvegicus, UniProt P32244). The experiment in a line: Intracellular cAMP production in recombinant MC3-R expressing human 293 cells. Format: cell-based. Background: Cyclic AMP is a second messenger, typically raised through Gs and lowered through Gi signalling.
Protocol: This property of cells expressing melanocortin receptors was used to analyze expression of MC3-R in cells transfected with the expression vectors described herein as follows.
Following hormone treatment, the cells were washed twice with phosphate buffered saline and intracellular cAMP extracted by lysing the cells with 1 ml of 60% ethanol.
The subject of test [2] is pigmentation. Particulars: Ling et al. 1979; Slominski et al. 1992; cited from earlier work.
For test [3], the system named is central nervous system and renal afferent nerve. Particulars: Gruber & Callahan 1989; Klein et al. 1985; Lin et al. 1987; cited from earlier work.

Sequence of rat MC3-R (P32244 whole entry): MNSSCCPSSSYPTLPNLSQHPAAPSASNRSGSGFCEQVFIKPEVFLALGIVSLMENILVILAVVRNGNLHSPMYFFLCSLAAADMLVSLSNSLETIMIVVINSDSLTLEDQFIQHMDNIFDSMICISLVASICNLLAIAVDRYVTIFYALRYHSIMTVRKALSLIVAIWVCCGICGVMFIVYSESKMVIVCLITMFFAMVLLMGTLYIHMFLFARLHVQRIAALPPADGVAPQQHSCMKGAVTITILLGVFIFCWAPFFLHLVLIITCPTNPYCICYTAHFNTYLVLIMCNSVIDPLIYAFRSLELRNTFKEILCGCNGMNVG

In the case of `CSCC[C@H](NC(=O)[C@@H](NC(=O)[C@@H](N)Cc1ccc(O)cc1)C(C)C)C(=O)NCC(=O)N[C@@H](Cc1c[nH]cn1)C(=O)N[C@@H](Cc1ccccc1)C(=O)N[C@@H](CCCNC(=N)N)C(=O)N[C@@H](Cc1c[nH]c2ccccc12)C(=O)N[C@@H](CC(=O)O)C(=O)N[C@@H](CCCNC(=N)N)C(=O)N[C@@H](Cc1ccccc1)C(N)=O` [γ-MSH, γ-melanocyte stimulating hormone], the “potency rank among ligands (lowest EC50)” value in test [1] is “most potent ligand and the one having the lowest EC50”. In addition, the “ability to stimulate pigmentation” value in test [2] is on record as “little or no ability to stimulate pigmentation”. Besides, the “pressor, cardioaccelerator and natriuretic actions” value in test [3] is “potent pressor, cardioaccelerator and natriuretic actions”.
